Data reported in patent publication US20250163013A1, “TREATMENT OF GENITOURINARY SYNDROME OF MENOPAUSE” (THE REGENTS OF THE UNIVERSITY OF COLORADO, a body corporate, priority 2022, published 2025).
Entries after “also recorded” stand apart in the source; their conditions may differ. Each block holds one compound with its values, some of them ahead of it.

Experiments:
[1] = test system: estrogen receptor; test: Screen for agonist or antagonist effects on steroid hormone receptor-mediated gene expression; format: cell-based; settings: cell lines with endogenous genes or stably integrated reporter genes
Protocol: A screen for the agonist or antagonist effects of a set of commercially available flavonoids was done by assessing their ability to induce or inhibit steroid hormone receptor-mediated gene expression. Cell lines were used in which the activity of endogenous genes or stably integrated reporter genes provided a facile method to quantify the effect of the flavonoids. The compound library was tested for their effects on gene expression mediated by the estrogen receptor, androgen receptor, progesterone receptor, and glucocorticoid receptor. […] Compound 2 differs from compound 1 by the addition of a hydroxyl group at carbon 3 of the flavone scaffold. We reasoned that other substitutions at position 3 could have estrogenic activity. Two novel compounds were tested: compound 3 (6-hydroxy-2-(4-hydroxyphenyl)-3-methyl-4H-chromen-4-one) and compound 4 (3-fluoro-6-hydroxy-2-(4-hydroxyphenyl)-4H-chromen-4-one) of Table 1, which have a methyl or fluoro moiety, respectively, at position 3.

[2] = test system: Estrogen Response Element (ERE)-luciferase reporter gene; test: Cell culture-reporter gene assay of estrogenic activity (T47D ERE-luciferase); format: cell-based; settings: for EC50: Homo sapiens, T47D breast cancer cell line, ERE-luciferase, treated 20 hours, FIG. 4; for estrogenic activity (luciferase) in words: compared to estradiol 1 nM
Protocol: Estrogenic activity was compared to an optimal dose of estradiol (1 nM). Results from cell culture-reporter gene assay was performed in which a T47D breast cancer cell line with a stably integrated Estrogen Response Element (ERE)-luciferase reporter gene was treated for 20 hours with the indicated doses of test compounds (FIG. 4). Luciferase activity was compared to an optimal dose of estradiol (1 nM).

[3] = test system: ovariectomized rat; test: Thickness of uterine endometrium, myometrium and bladder urothelium, ovariectomized rat; format: in vivo; settings: estradiol 0.1 microgram/suppository daily for 14 days
Protocol: (§1) Compound 4 of Table 1 was tested in the ovariectomized rat, a model of GSM, (Yousefzadeh N, et al., Ovariectomized rat model of osteoporosis: a practical guide. EXCLI J. 2020 Jan. 10; 19:89-107. doi: 10.17179/excli2019-1990). […] To determine the depth of the epithelium, high quality 100x images were taken of the two regions and thickness of the epithelium measured at 25 distinct sites at each level for each animal, then averaged. […] P values were determined by student's T-test. […]
To ascertain whether compound 4 has an effect on the epithelium of anatomically neighboring tissues, the thickness of the epithelium was assessed in the uterus (a known target tissue of physiological levels of estradiol) and bladder (not an estrogen target tissue). The rats from the five treatment groups in the ovariectomized rat model of GSM described in Example 2 were evaluated for the effects of compound 4 on growth of uterus and bladder. […] The endometrium, myometrium, and urothelium thickness of each animal (n=6) were measured in 20 locations and averaged. […] P values were determined by student T-test.

[4] = test system: ovariectomized rat; test: Ki67 immunohistochemistry of uterine sections, ovariectomized rat; format: in vivo; settings: estradiol 0.1 microgram/suppository daily for 14 days
Protocol: as §1
Ki67 IHC was performed on a uterine section from animals in the control, the high level of compound 4 (abbreviated as “3F” in these figures), and estradiol groups. […] Approximately 800 cells were assessed for each animal within a group, then averaged to obtain the group mean. […] P values were determined by student T-test.

[5] = test system: ovariectomized rat; test: Behavior, appearance, weight and necropsy findings of treated rats; format: in vivo; settings: intravaginal suppository daily for 14 days
Protocol: (§2) Compound 4 of Table 1 was tested in the ovariectomized rat, a model of GSM, (Yousefzadeh N, et al., Ovariectomized rat model of osteoporosis: a practical guide. EXCLI J. 2020 Jan. 10; 19:89-107. doi: 10.17179/excli2019-1990). Six rats were tested in each of five treatment groups: rats treated with low or high concentrations of control (vehicle only); rats treated with low (0.2 mg/suppository or high (1.0 mg/suppository levels of compound 4 (abbreviated as “3F” in these figures); and rats treated with estradiol 0.1 microgram/suppository. Suppositories were administered intravaginally daily for 14 days. There were two sets of vehicle controls, corresponding to the level of excipients used in the in the low and high compound 4 treatment conditions. The estradiol treatment condition had excipients equivalent to the high control and high compound 4 treatment conditions. The individuals performing the drug treatment of the animals, their gross evaluations, sacrifice and dissection were blinded to the treatment that each group received. […] J Steroid Biochem Mol Biol. 2008 March; 109(1-2):67-80 doi: 10.1016/j.jsbmb.2007.09.023). […] To determine the depth of the epithelium, high quality 100x images were taken of the two regions and thickness of the epithelium measured at 25 distinct sites at each level for each animal, then averaged. […] P values were determined by student's T-test. […]

[6] = test system: ovariectomized rat; test: Ki67 immunohistochemistry of vaginal sections, ovariectomized rat; format: in vivo; settings: high compound 4, 1.0 mg/suppository daily for 14 days
Protocol: Compound 4 of Table 1 was tested in the ovariectomized rat, a model of GSM, (Yousefzadeh N, et al., Ovariectomized rat model of osteoporosis: a practical guide. EXCLI J. 2020 Jan. 10; 19:89-107. doi: 10.17179/excli2019-1990). Six rats were tested in each of five treatment groups: rats treated with low or high concentrations of control (vehicle only); rats treated with low (0.2 mg/suppository or high (1.0 mg/suppository levels of compound 4 (abbreviated as “3F” in these figures); and rats treated with estradiol 0.1 microgram/suppository. Suppositories were administered intravaginally daily for 14 days. There were two sets of vehicle controls, corresponding to the level of excipients used in the in the low and high compound 4 treatment conditions. The estradiol treatment condition had excipients equivalent to the high control and high compound 4 treatment conditions. […] To determine the depth of the epithelium, high quality 100x images were taken of the two regions and thickness of the epithelium measured at 25 distinct sites at each level for each animal, then averaged. […] P values were determined by student's T-test. […]
Ki-67 is a protein expressed in G1, S, G2, and M phase and has been established as a marker of cellular proliferation. […] Approximately 800 cells were assessed on each slide. […] P values were determined by student's T-test.

[7] = Level in systemic circulation after suppository regimen; format: in vivo; settings: female, rat, other: intravaginal suppository, one day after a two-week, daily suppository administration regimen, read-out: level in the systemic circulation (undetectable, LOD)
Protocol: as §2

[8] = test system: ovariectomized rat; test: Depth of vaginal epithelium in ovariectomized rat model of GSM; format: in vivo
Protocol: Independent measurement from mid-vagina (sections 3-4) and vagina near the cervix (sections 6-7) are shown. Twenty-five separate measurements were performed on sections 3-4 and also on sections 6-7 for each animal. There were 6 animals per treatment group, therefore each bar represents the mean of 150 measurements with the vertical line indicating one standard deviation.
as §1

[9] = test system: ovariectomized rat; test: Vaginal mucin 5B immunohistochemistry, semi-quantitative score, ovariectomized rat; format: in vivo; settings: intravaginal suppository daily for 14 days
Protocol: as §1
To investigate compound 4-mediated production of mucins in more detail, we investigated the production and presence of mucin 5B in the rat vagina. […] A semi-quantitative scoring system for the mucin 5B immunohistochemistry was designed with values between 0 to 2 in increments of 0.5 for the quantity of mucin 5B and the depth of the epithelium positive for mucin 5B, and then assessed at the levels 1, 2&3, 4&5, and 6&7. The presence of mucin 5B in the vaginal lumen was also assessed, then all values were summed for each animal. […] P values were determined by student's T-tests.

Compound: O=c1cc(-c2ccc(O)cc2)oc2ccc(O)cc12 [compound 1, 6-hydroxy-2-(4-hydroxyphenyl)-4H-chromen-4-one]
estrogen agonist effect on estrogen receptor-mediated gene expression [1]: estrogen agonist

Compound: C[C@]12CC[C@@H]3c4ccc(O)cc4CC[C@H]3[C@@H]1CC[C@@H]2O [estradiol]
endometrium, myometrium, and urothelium thickness vs control [3]: None of the pairs exhibited a significant difference | mean percent Ki67 positive uterine cells vs control [4]: None of the pairs exhibited a significant difference

Compound: Cc1c(-c2ccc(O)cc2)oc2ccc(O)cc2c1=O [compound 3, 6-hydroxy-2-(4-hydroxyphenyl)-3-methyl-4H-chromen-4-one]
potency compared to compound 2 (fold less potent) ([2]; T47D ERE-luciferase, 20 hours): about 10 fold | estrogenic activity (luciferase) in words ([2]; T47D ERE-luciferase, 20 hours): at very high doses appears to have superagonist activity

Second part, led by results:

EC50 [2]: 44 nM
Compound: O=c1c(O)c(-c2ccc(O)cc2)oc2ccc(O)cc12 [compound 2, 3,6-dihydroxy-2-(4-hydroxyphenyl)-4H-chromen-4-one]
estrogen agonist effect on estrogen receptor-mediated gene expression [1]: superior potency as an estrogen receptor agonist compared to compound 1

concentration at 1 day [7]: < 0.33 ng/mL | EC50 [2]: 24 nM
Compound: O=c1c(F)c(-c2ccc(O)cc2)oc2ccc(O)cc12 [compound 4, 3-fluoro-6-hydroxy-2-(4-hydroxyphenyl)-4H-chromen-4-one]
effect on animal behavior, appearance, weight, necropsy findings [5]: does not affect animal behavior, appearance, weight, or necropsy findings | percent Ki67 positive cells in vaginal basal and parabasal layers vs control [6]: no statistical difference between the groups | effect on vaginal epithelium structure, in words ([8]; 0.2 and 1.0 mg/suppository intravaginally daily for 14 days): dose dependent; also recorded: can restore the structure of the degenerate vaginal epithelium to the same level as estradiol | mean epithelial depth, p value vs corresponding control ([8]; low compound 4, 0.2 mg/suppository intravaginally daily for 14 days, both regions, borderline significant): ≈ 0.05 | estrogenic activity (luciferase) in words ([2]; T47D ERE-luciferase, 20 hours): robust estrogenic activity and superior potency compared to compound 2 | vaginal production of mucins, in words [9]: stimulates the vaginal production of mucins; also recorded: lower dose of compound 4 treatment results in somewhat higher mucin production than higher dose
